US20140315234A1, “METHOD TO GENERATE DOPAMINERGIC NEURONS FROM MOUSE AND HUMAN CELLS” (priority 2010, published 2014)
Read-outs that look alike come from different tables or passages of the source.

Experiments:
D2/D3 receptor = assay type: cell-based, mouse
Description: (§1) Recordings were performed on reprogrammed mouse and human fibroblasts and primary mesencephalic DA neurons. […] Only cells without signs of detachment from the substrate were used for recordings. Cells were perfused continuously with HEPES-buffered saline (HBS) of the following composition (in mM): 140 NaCl, 5 KCl, 2 CaCl2, 2 MgCl2, 15 HEPES, and 25 glucose, pH 7.4. The patch pipette solution contained (in mM): 130 K-gluconate, 10 KCl, 0.5 CaCl2, 15 HEPES, 5 EGTA, 8 NaCl, 2 MgATP, 0.3 Na2GTP, and 10 glucose, pH adjusted to 7.2 with KOH. Action potentials were recorded in the on-cell and the current-clamp whole-cell configuration. A current was injected to have membrane potentials around −60 mV, and step currents from −50 pA to 40 pA were injected to elicit action potentials. Na^+ currents and composite K^+ currents were recorded in the voltage-clamp configuration by delivering voltage steps ranging from −100 mV to +20 mV in cells held at −60 mV. Delayed rectifier K+ currents were activated by 0.5 s voltage steps from −40 mV to +20 mV after a 0.5 s-long step to −40 mV.

[1] = test system: Na+ voltage-gated channels; assay type: cell-based, mouse
Na+ currents = assay type: cell-based, human
K+ channel = assay type: cell-based, mouse
K+ currents = assay: Pharmacological suppression of K+ currents in human iDAN cells; assay type: cell-based
Description: as §1

CCCN1CCC[C@@H]2Cc3n[nH]cc3C[C@H]21 [quinpirole]
effect on neuronal firing (D2/D3 receptor): drastically suppressed neuronal firing in 6 of 10 recorded cells

NC1=N[C@H](O)[C@H]2[C@H]3O[C@]4(O)O[C@@H]([C@@H](O)[C@@]2(N1)[C@@H]4O)[C@]3(O)CO [TTX, tetrodotoxin]
block of the fast inward current [1]: complete block | effect on Na+ currents and action potentials (Na+ currents): Suppression

Nc1ccncc1 [4-AP, 4-aminopyridine]
effect on outward K+ currents (K+ channel; 4-AP 3 mM, TEA 10 mM, in the presence of TTX, n=4): inhibition of outward currents | effect on K+ currents and action potentials (K+ currents): Suppression

CC[N+](CC)(CC)CC [TEA, tetraethylammonium]
effect on outward K+ currents (K+ channel): inhibition of outward currents
